Reference: PubChem BioAssay AID1963868 (Molecular Pharmacology Branch, DTP, NCI, 2024)

System: KRAS PDC tumor spheroids (HUVEC+MSC), viability
Assay: Anticancer human tumor 254851-301-R-J1-PDC patient-derived colon carcinoma cell line growth inhibition [KRAS2]
Conditions: for viability, T/C: stronger effect = lower value
Summary of the method: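 KRAS-mutant tumor cells were grown as spheroids with HUVEC endothelial cells and human MSCs as stroma. Targeted agents were tested alone and with KRAS pathway inhibitors. Doses started at or near clinical Cmax, or 10 microM, descending half-log.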

[1] = curve of first compound, second compound 0.1 µM
[2] = curve of first compound, second compound 0.316 µM
[3] = curve of first compound, second compound 1 µM
[4] = curve of first compound, second compound 3.16 µM
[5] = curve of first compound, second compound 10 µM
[6] = second compound 0.1 µM, first compound 0.01 µM
[7] = second compound 0.1 µM, first compound 0.0316 µM
[8] = second compound 0.1 µM, first compound 0.1 µM
[9] = second compound 0.316 µM, first compound 0.01 µM
[10] = second compound 0.316 µM, first compound 0.0316 µM
[11] = second compound 0.316 µM, first compound 0.1 µM
[12] = second compound 1 µM, first compound 0.01 µM
[13] = second compound 1 µM, first compound 0.0316 µM
[14] = second compound 1 µM, first compound 0.1 µM
[15] = second compound 3.16 µM, first compound 0.01 µM
[16] = second compound 3.16 µM, first compound 0.0316 µM
[17] = second compound 3.16 µM, first compound 0.1 µM
[18] = second compound 10 µM, first compound 0.01 µM
[19] = second compound 10 µM, first compound 0.0316 µM
[20] = second compound 10 µM, first compound 0.1 µM
[21] = second compound 0.1 µM, first compound 0.316 µM
[22] = second compound 0.1 µM, first compound 1 µM
[23] = second compound 0.1 µM, first compound 3.16 µM
[24] = second compound 0.1 µM, first compound 10 µM
[25] = second compound 0.316 µM, first compound 0.316 µM
[26] = second compound 0.316 µM, first compound 1 µM
[27] = second compound 0.316 µM, first compound 3.16 µM
[28] = second compound 0.316 µM, first compound 10 µM
[29] = second compound 1 µM, first compound 0.316 µM
[30] = second compound 1 µM, first compound 1 µM
[31] = second compound 1 µM, first compound 3.16 µM
[32] = second compound 1 µM, first compound 10 µM
[33] = second compound 3.16 µM, first compound 0.316 µM
[34] = second compound 3.16 µM, first compound 1 µM
[35] = second compound 3.16 µM, first compound 3.16 µM
[36] = second compound 3.16 µM, first compound 10 µM
[37] = second compound 10 µM, first compound 0.316 µM
[38] = second compound 10 µM, first compound 1 µM
[39] = second compound 10 µM, first compound 3.16 µM
[40] = second compound 10 µM, first compound 10 µM
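Note: spheroids exposed to compounds for seven days before readout.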
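Throughout, for viability, T/C: 100% = DMSO vehicle control luminescence of the spheroids.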

SMILES: Cn1ncnc1[C@H]1c2n[nH]c(=O)c3cc(F)cc(c23)N[C@@H]1c1ccc(F)cc1 + C=CC(=O)N1CCN(c2nc(=O)n(-c3c(C)ccnc3C(C)C)c3nc(-c4c(O)cccc4F)c(F)cc23)C(C)C1
- IC50 [1]: > 100 nM
- IC50 [2]: > 100 nM
- IC50 [3]: > 100 nM
- IC50 [4]: > 100 nM
- IC50 [5]: > 100 nM
- viability, T/C (second compound 0.1 µM, first compound 0.000316 µM): 101%
- viability, T/C (second compound 0.1 µM, first compound 0.001 µM): 99.8%
- viability, T/C (second compound 0.1 µM, first compound 0.00316 µM): 99.2%
- viability, T/C [6]: 99.3%
- viability, T/C [7]: 106%
- viability, T/C [8]: 98.8%
- viability, T/C (second compound 0.316 µM, first compound 0.000316 µM): 97.5%
- viability, T/C (second compound 0.316 µM, first compound 0.001 µM): 97.9%
- viability, T/C (second compound 0.316 µM, first compound 0.00316 µM): 96%
- viability, T/C [9]: 94.5%
- viability, T/C [10]: 88.5%
- viability, T/C [11]: 92.4%
- viability, T/C (second compound 1 µM, first compound 0.000316 µM): 90%
- viability, T/C (second compound 1 µM, first compound 0.001 µM): 93.9%
- viability, T/C (second compound 1 µM, first compound 0.00316 µM): 98%
- viability, T/C [12]: 94.7%
- viability, T/C [13]: 97.7%
- viability, T/C [14]: 86.5%
- viability, T/C (second compound 3.16 µM, first compound 0.000316 µM): 97%
- viability, T/C (second compound 3.16 µM, first compound 0.001 µM): 103%
- viability, T/C (second compound 3.16 µM, first compound 0.00316 µM): 94%
- viability, T/C [15]: 94.3%
- viability, T/C [16]: 96.3%
- viability, T/C [17]: 90.4%
- viability, T/C (second compound 10 µM, first compound 0.000316 µM): 108%
- viability, T/C (second compound 10 µM, first compound 0.001 µM): 99.4%
- viability, T/C (second compound 10 µM, first compound 0.00316 µM): 102%
- viability, T/C [18]: 91.7%
- viability, T/C [19]: 87.4%
- viability, T/C [20]: 96.8%

SMILES: O=C(c1cc(Cc2n[nH]c(=O)c3ccccc23)ccc1F)N1CCN(C(=O)C2CC2)CC1
- viability, T/C (compound 0.0316 µM): 107% [middle of 5 runs]
- viability, T/C (compound 0.1 µM): 108% [middle of 5 runs]
- viability, T/C (compound 0.316 µM): 99.5% [middle of 5 runs]
- viability, T/C (compound 1 µM): 99.5% [middle of 5 runs]
- viability, T/C (compound 3.16 µM): 97.4% [middle of 5 runs]
- viability, T/C (compound 10 µM): 99.1% [middle of 5 runs]
- IC50 (curve of compound): > 10000 nM

SMILES: COC(=O)c1ccc2c(C(=Nc3ccc(N(C)C(=O)CN4CCN(C)CC4)cc3)c3ccccc3)c(O)[nH]c2c1 + CNCc1ccccc1-c1csc(C(C)Nc2nc(C)nc3cc(OC)c(OC)cc23)c1
- IC50 [1]: > 10000 nM
- IC50 [2]: > 10000 nM
- IC50 [3]: > 10000 nM
- IC50 [4]: 378 nM
- IC50 [5]: < 31.6 nM
- viability, T/C [7]: 101%
- viability, T/C [8]: 94.3%
- viability, T/C [21]: 96.3%
- viability, T/C [22]: 91%
- viability, T/C [23]: 83.9%
- viability, T/C [24]: 95.9%
- viability, T/C [10]: 93.1%
- viability, T/C [11]: 93.6%
- viability, T/C [25]: 91.9%
- viability, T/C [26]: 87%
- viability, T/C [27]: 77.4%
- viability, T/C [28]: 86.2%
- viability, T/C [13]: 91.8%
- viability, T/C [14]: 96.5%
- viability, T/C [29]: 84.8%
- viability, T/C [30]: 79.9%
- viability, T/C [31]: 69.2%
- viability, T/C [32]: 59%
- viability, T/C [16]: 63.6%
- viability, T/C [17]: 70.2%
- viability, T/C [33]: 58.8%
- viability, T/C [34]: 2.44%
- viability, T/C [35]: 0.21%
- viability, T/C [36]: 0.68%
- viability, T/C [19]: 0.16%
- viability, T/C [20]: 0.16%
- viability, T/C [37]: 0.25%
- viability, T/C [38]: 0.11%
- viability, T/C [39]: 0.1%
- viability, T/C [40]: 0.16%

SMILES: CC1COCCN1c1cc(-c2ccnn2C)c2ccnc(-c3ccn[nH]3)c2n1 (configuration not stated) + CC1OCC2(CCN(c3cnc(Sc4ccnc(N)c4Cl)c(N)n3)CC2)C1N
- IC50 [1]: 303 nM
- IC50 [2]: 323 nM
- IC50 [3]: 315 nM
- IC50 [4]: 165 nM
- IC50 [5]: 152 nM
- viability, T/C [6]: 114%
- viability, T/C [7]: 107%
- viability, T/C [8]: 75.5%
- viability, T/C [21]: 48.6%
- viability, T/C [22]: 36.4%
- viability, T/C [23]: 24.5%
- viability, T/C [9]: 90.5%
- viability, T/C [10]: 101%
- viability, T/C [11]: 83.5%
- viability, T/C [25]: 49.8%
- viability, T/C [26]: 33%
- viability, T/C [27]: 24.4%
- viability, T/C [12]: 88.7%
- viability, T/C [13]: 89.8%
- viability, T/C [14]: 79%
- viability, T/C [29]: 47.1%
- viability, T/C [30]: 34.6%
- viability, T/C [31]: 21.2%
- viability, T/C [15]: 69.2%
- viability, T/C [16]: 74.8%
- viability, T/C [17]: 57%
- viability, T/C [33]: 39.2%
- viability, T/C [34]: 23.1%
- viability, T/C [35]: 21.9%
- viability, T/C [18]: 67.1%
- viability, T/C [19]: 65.8%
- viability, T/C [20]: 58.3%
- viability, T/C [37]: 35.8%
- viability, T/C [38]: 27.2%
- viability, T/C [39]: 20%

SMILES: COc1cc2nccc(Oc3ccc(NC(=O)C4(C(=O)Nc5ccc(F)cc5)CC4)cc3)c2cc1OC + CC1OCC2(CCN(c3cnc(Sc4ccnc(N)c4Cl)c(N)n3)CC2)C1N
- IC50 [1]: 9270 nM
- IC50 [2]: 9860 nM
- IC50 [3]: 6690 nM
- IC50 [4]: > 10000 nM
- IC50 [5]: 6020 nM
- viability, T/C [7]: 100%
- viability, T/C [8]: 103%
- viability, T/C [21]: 95.6%
- viability, T/C [22]: 112%
- viability, T/C [23]: 102%
- viability, T/C [24]: 46.3%
- viability, T/C [10]: 98.7%
- viability, T/C [11]: 112%
- viability, T/C [25]: 100%
- viability, T/C [26]: 90.5%
- viability, T/C [27]: 84.4%
- viability, T/C [28]: 48.7%
- viability, T/C [13]: 85.2%
- viability, T/C [14]: 92.4%
- viability, T/C [29]: 91.7%
- viability, T/C [30]: 80.3%
- viability, T/C [31]: 71.6%
- viability, T/C [32]: 38.7%
- viability, T/C [16]: 69.7%
- viability, T/C [17]: 84.4%
- viability, T/C [33]: 82.3%
- viability, T/C [34]: 72.1%
- viability, T/C [35]: 62.3%
- viability, T/C [36]: 56.5%
- viability, T/C [19]: 77.8%
- viability, T/C [20]: 75.6%
- viability, T/C [37]: 74.4%
- viability, T/C [38]: 68.1%
- viability, T/C [39]: 63.9%
- viability, T/C [40]: 40.2%
